Patent publication US20260009085A1, “METHODS AND COMPOSITIONS FOR THE DIAGNOSIS AND TREATMENT OF CANCER” (Chengdu Anticancer Bioscience, Ltd., priority 2023, published 2026)

System: panel of 98 human cancer cell lines
Test: Concentration-response in panel of 98 human cancer cell lines with MYC/MKLP2 biomarker statistical analysis (AUC, EC50, IC50, Emax, h)
Type: cell-based
Procedure: For passaging of cell lines prior to a […] (MTT) assay, cells were routinely split when reaching mid-log phase and not allowed to progress to confluence. For the determination of cytotoxicity, cells were plated in 96-well plates at 4,000 cells per well in a volume of 100 μL and cultivated for 15 to 24 hours to reach 20-30% confluence. Cells on the plate were then exposed in triplicate to test compounds at concentrations ranging from 0.06 nM to 10 μM by using 3-fold serial dilutions or a concentration range from 5 nM to 10 μM using 2-fold serial dilutions. Cells exposed to vehicle (0.1% DMSO) were used as a negative control. Three days after initiation of the treatment, 20 μL of MTT (stock solution 5 mg/mL) was added to each well before incubation at 37° C. for another 3-4 hours. The medium was then aspirated with a microplate washer (BioTek ELX50) before 50 μL of DMSO was added to each well. After incubation with shaking for 10 minutes, the 96-well plate was analyzed with a microplate reader (BioTek ELX808iu) at a wavelength of 570 nm. The relative cell number was calculated as (A570^Compound/A570^DMSO)×100%. […] Statistical analysis was performed in GraphPad Prism 8.0.2. Error bars were presented as mean±1 standard deviation.
The CellTiter-Glo® (CTG) assay determines levels of ATP, and therefore the metabolic health of cell grown in culture. […] Wells containing medium without cells were used as a baseline control to obtain a value for background luminescence. […] 150 μL of the mixture was transferred to a white 96-well microplate (Falcon, Cat. #353296) and the luminescence signal was recorded by a microplate reader (Tecan Spark).
To develop a comparative metric reflecting the level of MYC and/or MKLP2 in a given cell line, the signal intensity of the MYC and MKLP2 protein bands from immunoblot analysis were normalized to the intensity of the housekeeping protein β-ACTIN. […] Whole cell MYC and MKLP2 proteins were quantified in a panel of 98 human cancer cell lines, see Table 4, below. […]

Q: Which “association of oncogenic alterations (TP53, RB, PTEN, RAS, BRAF, PI3K) with response” value (89 of the 98 cell lines) does the source give for `CNC(=O)c1cc(OC)cc(Oc2ncccc2-c2ccnc(C)c2)c1` [LG157] here?
A: no evidence was found that these alterations were associated with either sensitivity or resistance

Q: What about the “relation of MKLP2 protein level to response” value (98 cell lines) of the same compound?
A: lower protein levels of MKLP2, but not high, predicted a favorable response

Q: And the “relation of MYC abundance to sensitivity” value (98 cell lines)?
A: the abundance of MYC in the human cancer cell lines positively relates to sensitivity
